Test results: the OPERA property sets (Mansouri et al. 2018)
In brackets after ≈: the same amount, converted by molar mass.

Conditions: 20 °C

| Structure (SMILES) | solubility [mM] |
| --- | --- |
| c1ccc2[nH]ncc2c1 | 6.99 (≈ 826 µg/mL) |
| c1ccc2[nH]cnc2c1 | 17 (≈ 2010 µg/mL) |

Same assay, conditions: 25 °C

| Structure (SMILES) | solubility [mM] |
| --- | --- |
| c1ccc2nccnc2c1 | 5070 (≈ 660000 µg/mL) |
| c1ccc2c(c1)-c1ccc3ccc4cccc5cc-2c1c3c45 | 6.88e-07 (≈ 0.00019 µg/mL) |
| Cc1c[nH]c2ccccc12 | 3.8 (≈ 498 µg/mL) |
| c1ccc2c(c1)ccc1ncccc12 | 0.439 (≈ 78.7 µg/mL) |
| Cc1nc2ccccc2[nH]1 | 11 (≈ 1450 µg/mL) |
| c1ccc2cc3c(cc2c1)-c1cccc2cccc-3c12 | 3.17e-06 (≈ 0.0008 µg/mL) |
| c1ccc2cnccc2c1 | 35 (≈ 4520 µg/mL) |

Further lines, results first:

| solubility [mM] | Structure (SMILES) |
| --- | --- |
| 1.06e-05 (≈ 0.00272 µg/mL) | Cc1cccc2c1c(C)cc1cc3ccccc3cc12 |
| 2.99e-05 (≈ 0.0085 µg/mL) | CCCCc1c2ccccc2cc2ccc3ccccc3c12 |
| 3e-06 (≈ 0.000798 µg/mL) | Cc1c2ccccc2c2ccc3cccc4ccc1c2c43 |
| 1.89e-05 (≈ 0.00477 µg/mL) | c1ccc2c(c1)c1cccc3ccc4cccc2c4c31 |
| 0.242 (≈ 31 µg/mL) | c1ccc2ccccc2c1 |

Same assay, conditions: 27 °C

| solubility [mM] | Structure (SMILES) |
| --- | --- |
| 0.00016 (≈ 0.041 µg/mL) | CCc1c2ccccc2cc2c1ccc1ccccc12 |
